“Also recorded” adds a separate entry of the source.
Test: Phase I dose escalation: study drug-related adverse events (NCI CTC v2.0), DLT, MTD
Format: in vivo
Protocol: Administration of telatinib was continued until an unacceptable toxicity, disease progression or death occurred or the consent was withdrawn. At start of the study, only a solution formulation was available. The formulation as tablet was introduced into the study after first pharmacokinetic results became available. Based on pharmacokinetic data, OD, two times daily (BID), and three times daily schedules were evaluated.
Three patients were initially enroled at each dose level. […] If any patient experienced a DLT, three additional patients were enroled at that dose level. If at least two out of six patients experienced a DLT, dose escalation had to be stopped and that dose was to be declared the toxic dose. The next lower dose level was defined as the MTD. […] In the course of the study the protocol was amended so that the onset of CTC grade 3 hypertension was only considered to be a DLT if the hypertension turned out to be refractory to standard antihypertensive treatment.
Adverse events were assessed at the end of each cycle and graded according to the National Cancer Institute Common Toxicity Criteria (NCI CTC), v2.0 ([Trotti et al, 2000]).
History, physical examinations, haematological and biochemical laboratory evaluations were performed at screening, on days 1, 7 and 14 of cycle 1 and on day 1 of subsequent cycles. Baseline objective tumour measurements were performed within 4 weeks prior to study treatment. Lesions at all disease sites were categorised as either measurable or nonmeasurable. Indicator lesions were selected and monitored throughout the study by the same assessor and using the same technique. Tumour response was evaluated according to the RECIST ([Therasse et al, 2000]).

[1] = continuous dosing 600 mg BID (N=7)
[2] = continuous dosing 900 mg BID (N=6)
[3] = continuous dosing 1200 mg BID (N=7)
[4] = continuous dosing 1500 mg BID (N=6)
[5] = noncontinuous dosing 600 mg BID (N=6)
[6] = noncontinuous dosing 900 mg BID (N=6)
[7] = noncontinuous dosing 1500 mg BID (N=6)
[8] = noncontinuous dosing 75–300 mg BID (N=27)

## CNC(=O)c1cc(COc2nnc(Nc3ccc(Cl)cc3)c3ccoc23)ccn1 [telatinib]
300 mg BID, 1500 mg BID noncontinuous and 1200 mg BID continuous dosing
  Patients with hypertension resulting in dose reduction and dose interruption: three
1500 mg BID continuous dosing, first 21 days of treatment
  Patients with dose-limiting toxicities: no patient out of six patients; also recorded: none of the six patients
1500 mg BID noncontinuous dosing, grade 3 hypertension refractory to standard treatment
  Patients with dose-limiting toxicities: one out of six patients
Total, all patients N=71
  Incidence of patients with study drug-related adverse events, worst CTC grade 3: Abdominal pain or cramping: 2 (3) N(%)
  Incidence of patients with study drug-related adverse events, worst CTC grade 3: Any event: 18 (25) N(%)
  Incidence of patients with study drug-related adverse events, worst CTC grade 3: Dehydration: 1 (1) N(%)
  Incidence of patients with study drug-related adverse events, worst CTC grade 3: Diarrhoea, patients with colostomy: 1 (1) N(%)
  Incidence of patients with study drug-related adverse events, worst CTC grade 3: Diarrhoea, patients without colostomy: 4 (6) N(%)
  Incidence of patients with study drug-related adverse events, worst CTC grade 3: Hand–foot skin reaction: 1 (1) N(%)
  Incidence of patients with study drug-related adverse events, worst CTC grade 3: Hypertension: 16 (23) N(%)
  Incidence of patients with study drug-related adverse events, worst CTC grade 3: Rash/desquamation: 1 (1) N(%)
  Incidence of patients with study drug-related adverse events, worst CTC grades 1–2: Alopecia: 2 (3) N(%)
  Incidence of patients with study drug-related adverse events, worst CTC grades 1–2: Anorexia: 5 (7) N(%)
  Incidence of patients with study drug-related adverse events, worst CTC grades 1–2: Any event: 15 (21) N(%)
  Incidence of patients with study drug-related adverse events, worst CTC grades 1–2: Diarrhoea, patients without colostomy: 4 (6) N(%)
  Incidence of patients with study drug-related adverse events, worst CTC grades 1–2: Fatigue: 2 (3) N(%)
  Incidence of patients with study drug-related adverse events, worst CTC grades 1–2: Flatulence: 2 (3) N(%)
  Incidence of patients with study drug-related adverse events, worst CTC grades 1–2: Hypertension: 3 (4) N(%)
  Incidence of patients with study drug-related adverse events, worst CTC grades 1–2: Nausea: 3 (4) N(%)
  Incidence of patients with study drug-related adverse events, worst CTC grades 1–2: Voice changes/stridor/larynx: 5 (7) N(%)
  Incidence of patients with study drug-related adverse events, worst CTC grades 1–2: Vomiting: 2 (3) N(%)
All patients
  Patients dose reduced or discontinued permanently due to drug-related adverse events: nine out of 71
All patients N=71
  Hypertension, study drug-related, CTC grade 3: 23%
  Hypertension, study drug-related, worst CTC grade 1–2: 4%
  Patients with at least one study drug-related adverse event, worst CTC grade 1–2: 21%
  Patients with at least one study drug-related adverse event, worst CTC grade 3: 25%
  Study drug-related adverse events of CTC grades 4 or 5: no study drug-related adverse events of CTC grades 4 or 5
All patients N=71 (with and without colostomy)
  Diarrhoea, study drug-related, CTC grade 3: 7%
All patients, diarrhoea, hypertension, hand–foot skin reaction and dehydration
  Patients with serious study drug-related adverse events: five
[1]
  Incidence of patients with study drug-related adverse events, worst CTC grades 1–2: Any event: 1 (14) N(%)
  Incidence of patients with study drug-related adverse events, worst CTC grades 1–2: Diarrhoea, patients without colostomy: 1 (14) N(%)
[2]
  Incidence of patients with study drug-related adverse events, worst CTC grade 3: Any event: 3 (50) N(%)
  Incidence of patients with study drug-related adverse events, worst CTC grade 3: Dehydration: 1 (17) N(%)
  Incidence of patients with study drug-related adverse events, worst CTC grade 3: Diarrhoea, patients with colostomy: 1 (17) N(%)
  Incidence of patients with study drug-related adverse events, worst CTC grade 3: Diarrhoea, patients without colostomy: 1 (17) N(%)
  Incidence of patients with study drug-related adverse events, worst CTC grade 3: Hand–foot skin reaction: 1 (17) N(%)
  Incidence of patients with study drug-related adverse events, worst CTC grade 3: Hypertension: 2 (33) N(%)
  Incidence of patients with study drug-related adverse events, worst CTC grade 3: Rash/desquamation: 1 (17) N(%)
  Incidence of patients with study drug-related adverse events, worst CTC grades 1–2: Alopecia: 1 (17) N(%)
  Incidence of patients with study drug-related adverse events, worst CTC grades 1–2: Any event: 2 (33) N(%)
  Incidence of patients with study drug-related adverse events, worst CTC grades 1–2: Nausea: 1 (17) N(%)
  Incidence of patients with study drug-related adverse events, worst CTC grades 1–2: Voice changes/stridor/larynx: 1 (17) N(%)
[3]
  Incidence of patients with study drug-related adverse events, worst CTC grade 3: Abdominal pain or cramping: 1 (14) N(%)
  Incidence of patients with study drug-related adverse events, worst CTC grade 3: Any event: 5 (71) N(%)
  Incidence of patients with study drug-related adverse events, worst CTC grade 3: Diarrhoea, patients without colostomy: 2 (29) N(%)
  Incidence of patients with study drug-related adverse events, worst CTC grade 3: Hypertension: 5 (71) N(%)
  Incidence of patients with study drug-related adverse events, worst CTC grades 1–2: Any event: 1 (14) N(%)
  Incidence of patients with study drug-related adverse events, worst CTC grades 1–2: Flatulence: 1 (14) N(%)
[4]
  Incidence of patients with study drug-related adverse events, worst CTC grades 1–2: Any event: 2 (33) N(%)
  Incidence of patients with study drug-related adverse events, worst CTC grades 1–2: Diarrhoea, patients without colostomy: 2 (33) N(%)
  Incidence of patients with study drug-related adverse events, worst CTC grades 1–2: Flatulence: 1 (17) N(%)
  Incidence of patients with study drug-related adverse events, worst CTC grades 1–2: Hypertension: 1 (17) N(%)
  Incidence of patients with study drug-related adverse events, worst CTC grades 1–2: Nausea: 1 (17) N(%)
  Incidence of patients with study drug-related adverse events, worst CTC grades 1–2: Vomiting: 1 (17) N(%)
Continuous dosing, MTD not reached up to highest dose
  Maximum-tolerated dose (MTD): > 1500 mg BID
Cycle 1, day 14 vs baseline
  diastolic blood pressure, change from baseline: increase
Dose levels of 900 mg BID or higher
  Patients with diarrhoea leading to dose reduction or interruption: four
Grade 3 hypertension refractory to standard treatment, at 300 and 1500 mg BID noncontinuous dosing
  Patients with dose-limiting toxicities: two
human, in vivo
  Maximum-tolerated dose (MTD): > 1500 mg BID
[5]
  Incidence of patients with study drug-related adverse events, worst CTC grade 3: Any event: 3 (50) N(%)
  Incidence of patients with study drug-related adverse events, worst CTC grade 3: Hypertension: 3 (50) N(%)
  Incidence of patients with study drug-related adverse events, worst CTC grades 1–2: Anorexia: 1 (17) N(%)
  Incidence of patients with study drug-related adverse events, worst CTC grades 1–2: Any event: 2 (33) N(%)
  Incidence of patients with study drug-related adverse events, worst CTC grades 1–2: Fatigue: 2 (33) N(%)
  Incidence of patients with study drug-related adverse events, worst CTC grades 1–2: Voice changes/stridor/larynx: 2 (33) N(%)
[6]
  Incidence of patients with study drug-related adverse events, worst CTC grade 3: Any event: 2 (33) N(%)
  Incidence of patients with study drug-related adverse events, worst CTC grade 3: Hypertension: 2 (33) N(%)
  Incidence of patients with study drug-related adverse events, worst CTC grades 1–2: Anorexia: 1 (17) N(%)
  Incidence of patients with study drug-related adverse events, worst CTC grades 1–2: Any event: 3 (50) N(%)
  Incidence of patients with study drug-related adverse events, worst CTC grades 1–2: Hypertension: 1 (17) N(%)
  Incidence of patients with study drug-related adverse events, worst CTC grades 1–2: Voice changes/stridor/larynx: 2 (33) N(%)
[7]
  Incidence of patients with study drug-related adverse events, worst CTC grade 3: Abdominal pain or cramping: 1 (17) N(%)
  Incidence of patients with study drug-related adverse events, worst CTC grade 3: Any event: 4 (67) N(%)
  Incidence of patients with study drug-related adverse events, worst CTC grade 3: Diarrhoea, patients without colostomy: 1 (17) N(%)
  Incidence of patients with study drug-related adverse events, worst CTC grade 3: Hypertension: 3 (50) N(%)
  Incidence of patients with study drug-related adverse events, worst CTC grades 1–2: Anorexia: 2 (33) N(%)
  Incidence of patients with study drug-related adverse events, worst CTC grades 1–2: Any event: 2 (33) N(%)
  Incidence of patients with study drug-related adverse events, worst CTC grades 1–2: Diarrhoea, patients without colostomy: 1 (17) N(%)
  Incidence of patients with study drug-related adverse events, worst CTC grades 1–2: Hypertension: 1 (17) N(%)
  Incidence of patients with study drug-related adverse events, worst CTC grades 1–2: Nausea: 1 (17) N(%)
  Incidence of patients with study drug-related adverse events, worst CTC grades 1–2: Vomiting: 1 (17) N(%)
[8]
  Incidence of patients with study drug-related adverse events, worst CTC grade 3: Any event: 1 (4) N(%)
  Incidence of patients with study drug-related adverse events, worst CTC grade 3: Hypertension: 1 (4) N(%)
  Incidence of patients with study drug-related adverse events, worst CTC grades 1–2: Alopecia: 1 (4) N(%)
  Incidence of patients with study drug-related adverse events, worst CTC grades 1–2: Anorexia: 1 (4) N(%)
  Incidence of patients with study drug-related adverse events, worst CTC grades 1–2: Any event: 2 (7) N(%)
